Experiment [1] is described as follows: Antiproliferative activity against human PANC1 cells assessed as cell growth at 10 uM after 72 hrs by CellTitre assay relative to control. The conditions noted are these: PANC-1, 72 h, read-out: Activity. It is filed as functional.
Experiment [2] can be described thus: Antiproliferative activity against human BxPC3 cells assessed as cell growth at 10 uM after 72 hrs by CellTitre assay relative to control. It is filed as functional. Particulars: BXPC-3, 72 h, read-out: Activity.
Experiment [3] is described as follows: Antiproliferative activity against human MIAPaCa2 cells assessed as cell growth at 10 uM after 72 hrs by CellTitre assay relative to control. It is filed as functional. The conditions noted are these: MIA PaCa-2, 72 h, read-out: Activity.
The next experiment concerns PANC-1. Briefly: Antiproliferative activity against human PANC1 cells assessed as cell growth at >100 uM after 72 hrs by CellTitre assay relative to control. It is filed as functional, cell-based.

SMILES strings stand for the structures. Counter-ions that a name gives are not always drawn. The source made the active and inactive calls. The calls are words filed in the database; no cut-off is given here.

The values that follow come from ChEMBL document CHEMBL3112546, “Synthetic α-(aminomethyl)-γ-butyrolactones and their anti-pancreatic cancer activities” (2013).

For `O=C1O[C@@H](c2ccccc2)[C@H](c2ccccc2)[C@H]1CN1CCCC1` (racemic), the values for the growth at 10 µM in experiment [1], in experiment [2] and in experiment [3] were 3%, 0% and 1%, respectively.

For the molecule `O=C1O[C@H](c2ccccc2)[C@H](c2ccccc2)[C@@H]1CN(Cc1ccccc1)Cc1ccccc1` (racemic), the values for the growth at 10 µM in experiment [1], in experiment [2] and in experiment [3] were 75%, 34% and 33%, respectively.

Take `CCN(CC)C[C@@H]1C(=O)O[C@H](c2ccccc2)[C@@H]1c1ccccc1` (racemic): the growth at 10 µM stood at 42% in experiment [1], 1% in experiment [2] and 17% in experiment [3].

For `O=C1O[C@H](c2ccccc2)[C@H](c2ccccc2)[C@@H]1CN1CCCC1` (racemic), the growth at 10 µM in experiment [1] came out at 11%; in experiment [2], 0%; in experiment [3] it was 17%.

In the case of `C=C1C(=O)O[C@@H]2[C@H]3O[C@]3(C)CC/C=C(\C)CC[C@@H]12`, the growth at 10 µM in experiment [1] was 12%; in experiment [2], 6%; in experiment [3], 3%.

`O=C1O[C@H](c2ccccc2)[C@H](c2ccccc2)[C@@H]1CN1CCOCC1` (racemic): the growth at 10 µM was 19% in experiment [1], 6% in experiment [2] and 13% in experiment [3].

For `O=C1O[C@@H](c2ccccc2)[C@H](c2ccccc2)[C@H]1CN(Cc1ccccc1)Cc1ccccc1` (racemic), the outcome in the experiment with PANC-1 was inactive. Also, the growth at 10 µM in experiment [2] was 50%; in experiment [3], 35%.

Regarding `CN(C)C[C@@H]1C(=O)O[C@H](c2ccccc2)[C@@H]1c1ccccc1` (racemic), the results for the growth at 10 µM in experiment [1], in experiment [2] and in experiment [3] were 30%, 1% and 9%, respectively.

As for `C=C1C(=O)O[C@H](c2ccccc2)[C@@H]1c1ccccc1` (racemic), the growth at 10 µM in experiment [1] was 38%; in experiment [2], 8%; in experiment [3], 3%.

On to `CCN(CC)C[C@H]1C(=O)O[C@@H](c2ccccc2)[C@@H]1c1ccccc1` (racemic), for which the growth at 10 µM in experiment [1] worked out at 1%; in experiment [2] it was 0%; in experiment [3], 1%.

`O=C1O[C@@H](c2ccccc2)[C@H](c2ccccc2)[C@H]1CN1CCCCC1` (racemic): the growth at 10 µM in experiment [1], in experiment [2] and in experiment [3] was 1% each time.

Turning to `C/C1=C\CC[C@@]2(C)O[C@@H]2[C@H]2OC(=O)[C@@H](CN(C)C)[C@@H]2CC1` [(DIMETHYLAMINO)PARTHENOLIDE FUMARIC ACID SALT], the figures for the growth at 10 µM in experiment [1], in experiment [2] and in experiment [3] were 17%, 7% and 2%, respectively.

Take `CN(C)C[C@H]1C(=O)O[C@@H](c2ccccc2)[C@@H]1c1ccccc1` (racemic): the figures for the growth at 10 µM in experiment [1], in experiment [2] and in experiment [3] were 0%, 0% and 1%, respectively.

Take `O=C1O[C@@H](c2ccccc2)[C@H](c2ccccc2)[C@H]1CN1CCOCC1` (racemic): the results for the growth at 10 µM in experiment [1], in experiment [2] and in experiment [3] were 16%, 9% and 10%, respectively.

Regarding `O=C1O[C@H](c2ccccc2)[C@H](c2ccccc2)[C@@H]1CN1CCCCC1` (racemic), the growth at 10 µM in experiment [1] amounted to 8%; in experiment [2], 3%; in experiment [3], 11%.

`O=C1O[C@@H](c2ccccc2)[C@H](c2ccccc2)[C@H]1CN(Cc1ccccc1)C(=O)c1ccccc1` (racemic): in the experiment with PANC-1, the outcome was inactive. Further, the growth at 10 µM was 81% in experiment [2] and 92% in experiment [3].

With `C=C1C(=O)O[C@@H](c2ccccc2)[C@@H]1c1ccccc1` (racemic), the growth at 10 µM in experiment [1], in experiment [2] and in experiment [3] was 1% in each case.
